In patent US20250195530A1, “POLQ INHIBITORS” (ASTRAZENECA AB, priority 2022, published 2025):
Where two headings read alike, the source gives them in different places.

How the values were obtained:
DLD-1 BRCA2−/− cells = test: Homologous recombination synthetic lethal inhibition of proliferation, DLD-1 BRCA2-/- (Cell Titre Glo 3D); type: cell-based; conditions: Homo sapiens, read-out: POLQ PD Prolif Lumin (converted)
How it was run: (§1)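 Cells are seeded in RPMI 1640 (phenol red free, 10% FBS, GlutaMAX) onto pre-dosed compound (10 μM to 0.51 nM, three-fold). Plates are incubated at 37 °C, and medium plus compound are refreshed on day 6. Viability is read by CellTiter-Glo 3D at day 7 (DLD-1) or day 12 (DLD-1 BRCA2−/−), and the IC50 is fitted.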

DLD-1 cells = test: Inhibition of proliferation, DLD-1 BRCA2 wt control (Cell Titre Glo 3D); type: cell-based; conditions: Homo sapiens, read-out: POLQ PD Prolif Lumin (converted)
How it was run: as §1

[1] = DLD-1, first proliferation column (c5), DLD-1 BRCA2-/-
[2] = DLD-1, second proliferation column (c6), DLD-1 BRCA2 wt control
[3] = DLD-1, DLD-1 BRCA2-/- proliferation, column head only partly shown
[4] = DLD-1, DLD-1 BRCA2 wt control proliferation, column head only partly shown

| Structure (SMILES) | IC50 (DLD-1 BRCA2−/− cells; [1]) [nM] | IC50 (DLD-1 cells; [2]) [nM] | IC50 (DLD-1 BRCA2−/− cells; [3]) [nM] | IC50 (DLD-1 cells; [4]) [nM] |
| --- | --- | --- | --- | --- |
| Cc1ccnc(Cn2c(-c3ccc(CN(C)C)cc3Cl)nc3c(OC4(C)CC4)ncnc32)c1 [Example T136, 1-(3-chloro-4-(6-(1-methylcyclopropoxy)-9-((4-methylpyridin-2-yl)methyl)-9H-purin-8-yl)phenyl)-N,N-dimethylmethanamine] | 501 | > 10000 | – | – |
| CNCCOc1ccc(-c2nc3c(OC4(C)CC4)ncnc3n2Cc2cc(C)ccn2)c(Cl)c1 [Example T137, 2-(3-chloro-4-(6-(1-methylcyclopropoxy)-9-((4-methylpyridin-2-yl)methyl)-9H-purin-8-yl)phenoxy)-N-methylethan-1-amine] | 200 | > 10000 | – | – |
| Cc1cnc(Cn2c(-c3ccc(OC4CCNCC4)cc3Cl)nc3c(OC4(C)CC4)ncnc32)s1 [Example T138, 2-((8-(2-chloro-4-(piperidin-4-yloxy)phenyl)-6-(1-methylcyclopropoxy)-9H-purin-9-yl)methyl)-5-methylthiazole] | 501 | > 10000 | – | – |
| Cc1cnc(Cn2c(-c3ccc(OC[C@H]4CCCN4)cc3Cl)nc3c(OC4(C)CC4)ncnc32)s1 [Example T139, (R)-2-((8-(2-chloro-4-(pyrrolidin-2-ylmethoxy)phenyl)-6-(1-methylcyclopropoxy)-9H-purin-9-yl)methyl)-5-methylthiazole] | 398 | > 10000 | – | – |
| Cc1cnc(Cn2c(-c3ccc(O[C@H]4CCN(C)C4)cc3Cl)nc3c(OC4(C)CC4)ncnc32)s1 [Example T140, (S)-2-((8-(2-chloro-4-((1-methylpyrrolidin-3-yl)oxy)phenyl)-6-(1-methylcyclopropoxy)-9H-purin-9-yl)methyl)-5-methylthiazole] | 251 | > 10000 | – | – |
| Cc1cnc(Cn2c(-c3cccc(OCCN4CC(O)C4)c3Cl)nc3c(OC4(C)CC4)ncnc32)s1 [Example T142, 1-(2-(2-chloro-3-(6-(1-methylcyclopropoxy)-9-((5-methylthiazol-2-yl)methyl)-9H-purin-8-yl)phenoxy)ethyl)azetidin-3-ol] | 1000 | > 10000 | – | – |
| CC1(Oc2ncnc3c2nc(-c2ccc(OCCN4CCNCC4)cc2Cl)n3Cc2ncsc2Cl)CC1 [Example T145, 5-chloro-4-((8-(2-chloro-4-(2-(piperazin-1-yl)ethoxy)phenyl)-6-(1-methylcyclopropoxy)-9H-purin-9-yl)methyl)thiazole] | 2000 | > 10000 | – | – |
| CC1(Oc2ncnc3c2nc(-c2ccc(OCCN4CCNCC4)cc2Cl)n3Cc2cnc(Cl)s2)CC1 [Example T146, 2-chloro-5-((8-(2-chloro-4-(2-(piperazin-1-yl)ethoxy)phenyl)-6-(1-methylcyclopropoxy)-9H-purin-9-yl)methyl)thiazole] | 1260 | > 10000 | – | – |
| Cc1cnc(Cn2c(-c3ccc(OCCCN(C)C)cc3Cl)nc3c(OC4(C)CC4)ncnc32)s1 [Example T148, 3-(3-chloro-4-(6-(1-methylcyclopropoxy)-9-((5-methylthiazol-2-yl)methyl)-9H-purin-8-yl)phenoxy)-N,N-dimethylpropan-1-amine] | 316 | > 7940 | – | – |
| Cc1cnc(Cn2c(-c3cccc(OCCCN(C)C)c3Cl)nc3c(OC4(C)CC4)ncnc32)s1 [Example T149, 3-(2-chloro-3-(6-(1-methylcyclopropoxy)-9-((5-methylthiazol-2-yl)methyl)-9H-purin-8-yl)phenoxy)-N,N-dimethylpropan-1-amine] | 316 | > 10000 | – | – |
| CC1(Oc2ncnc3c2nc(-c2ccc(OCCC(=O)O)cc2Cl)n3Cc2cccc(C(F)(F)F)c2)CC1 [Example T151, 3-(3-chloro-4-(6-(1-methylcyclopropoxy)-9-(3-(trifluoromethyl)benzyl)-9H-purin-8-yl)phenoxy)propanoic acid] | 398 | > 10000 | – | – |
| CC1(Oc2ncnc3c2nc(-c2cccc(OCCCC(=O)O)c2Cl)n3Cc2cccc(Cl)c2)CC1 [Example T157, 4-(2-chloro-3-(9-(3-chlorobenzyl)-6-(1-methylcyclopropoxy)-9H-purin-8-yl)phenoxy)butanoic acid] | 31.6 | > 10000 | – | – |
| CC1(Oc2ncnc3c2nc(-c2cccc(OC(C)(C)C(=O)O)c2Cl)n3Cc2cccc(Cl)c2)CC1 [Example T158, 2-(2-chloro-3-(9-(3-chlorobenzyl)-6-(1-methylcyclopropoxy)-9H-purin-8-yl)phenoxy)-2-methylpropanoic acid] | > 10000 | > 10000 | – | – |
| Cc1ccnc(Cn2c(-c3ccc(C(=O)N4CCC4)cc3Cl)nc3c(OC4(C)CC4)ncnc32)c1 [Example T169, azetidin-1-yl(3-chloro-4-(6-(1-methylcyclopropoxy)-9-((4-methylpyridin-2-yl)methyl)-9H-purin-8-yl)phenyl)methanone] | 631 | 10000 | – | – |
| Cc1ccnc(Cn2c(-c3ccc(N4CCCC4=O)cc3Cl)nc3c(OC4(C)CC4)ncnc32)c1 [Example T171, 1-(3-chloro-4-(6-(1-methylcyclopropoxy)-9-((4-methylpyridin-2-yl)methyl)-9H-purin-8-yl)phenyl)pyrrolidin-2-one] | 158 | > 10000 | – | – |
| Cc1ccnc(Cn2c(-c3ccc(N4CC[C@@H](O)C4=O)cc3Cl)nc3c(OC4(C)CC4)ncnc32)c1 [Example T181, (R)-1-(3-chloro-4-(6-(1-methylcyclopropoxy)-9-((4-methylpyridin-2-yl)methyl)-9H-purin-8-yl)phenyl)-3-hydroxypyrrolidin-2-one] | 316 | > 10000 | – | – |
| Cc1ccnc(Cn2c(-c3ccc(O[C@H]4CCNC4=O)cc3Cl)nc3c(OC4(C)CC4)ncnc32)c1 [Example T185, (S)-3-(3-chloro-4-(6-(1-methylcyclopropoxy)-9-((4-methylpyridin-2-yl)methyl)-9H-purin-8-yl)phenoxy)pyrrolidin-2-one] | 501 | > 10000 | – | – |
| Cc1ccnc(Cn2c(-c3ccc(O[C@@H]4CCNC4=O)cc3Cl)nc3c(OC4(C)CC4)ncnc32)c1 [Example T186, (R)-3-(3-chloro-4-(6-(1-methylcyclopropoxy)-9-((4-methylpyridin-2-yl)methyl)-9H-purin-8-yl)phenoxy)pyrrolidin-2-one] | 251 | > 10000 | – | – |
| Cc1ccnc(Cn2c(-c3ccc(OCC4(O)CC4)cc3Cl)nc3c(OC4(C)CC4)ncnc32)c1 [Example T197, 1-((3-chloro-4-(6-(1-methylcyclopropoxy)-9-((4-methylpyridin-2-yl)methyl)-9H-purin-8-yl)phenoxy)methyl)cyclopropan-1-ol] | 251 | > 10000 | – | – |
| Cc1ccnc(Cn2c(-c3ccc(OCCN(C)C)cc3Cl)nc3c(OC4(C#N)CC4)ncnc32)c1 [Example T203, 1-((8-(2-chloro-4-(2-(dimethylamino)ethoxy)phenyl)-9-((4-methylpyridin-2-yl)methyl)-9H-purin-6-yl)oxy)cyclopropane-1-carbonitrile] | – | – | 398 | > 10000 |
| Cc1ccnc(Cn2c(-c3ccc(N4CC(C(N)=O)C4)cc3Cl)nc3c(OC4(C)CC4)ncnc32)c1 [Example T204, 1-(3-chloro-4-(6-(1-methylcyclopropoxy)-9-((4-methylpyridin-2-yl)methyl)-9H-purin-8-yl)phenyl)azetidine-3-carboxamide] | – | – | 631 | > 10000 |
